This passage reports T/C results from PubChem BioAssay AID248 (DTP/NCI, 2004).

The experiment concerns L1210 leukemia ip in BDF1 mice, survival T/C. The experiment in a line: NCI In Vivo Anticancer Drug Screen. Data for tumor model L1210 Leukemia (intraperitoneal) in B6D2F1 (BDF1) mice. The settings on record: endpoint: mean survival time, higher = longer survival. Summed up: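 Mice bearing the transplanted tumor received compound or vehicle. Survival of the treated group was divided by that of the vehicle-treated control group to give the ratio.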

[1] abbreviates: dose: 100.0 mg/kg/injection, schedule: Q01DX009 (ip), vehicle: Klucel (hydroxypropylcellulose) (HPC).
Setting [2] is: dose: 100.0 mg/kg/injection, schedule: Q04DX003 (ip), vehicle: Klucel (hydroxypropylcellulose) (HPC).
[3] abbreviates: dose: 200.0 mg/kg/injection, schedule: Q01DX009 (ip), vehicle: Klucel (hydroxypropylcellulose) (HPC).
The mark [4] stands for this setting: dose: 200.0 mg/kg/injection, schedule: Q04DX003 (ip), vehicle: Klucel (hydroxypropylcellulose) (HPC).
[5] abbreviates: dose: 400.0 mg/kg/injection, schedule: Q01DX009 (ip), vehicle: Klucel (hydroxypropylcellulose) (HPC).
Setting [6] is: dose: 400.0 mg/kg/injection, schedule: Q04DX003 (ip), vehicle: Klucel (hydroxypropylcellulose) (HPC).
[7] abbreviates: dose: 100.0 mg/kg/injection, schedule: Q01DX009 (ip), vehicle: saline.
Setting [8] is: dose: 200.0 mg/kg/injection, schedule: Q01DX009 (ip), vehicle: saline.
The mark [9] stands for this setting: dose: 400.0 mg/kg/injection, schedule: Q01DX009 (ip), vehicle: saline.
The mark [10] stands for this setting: dose: 100.0 mg/kg/injection, schedule: Q01DX001 (ip), vehicle: saline.
Setting [11] is: dose: 200.0 mg/kg/injection, schedule: Q01DX001 (ip), vehicle: saline.
Setting [12] is: dose: 400.0 mg/kg/injection, schedule: Q01DX001 (ip), vehicle: saline.
[13] abbreviates: dose: 1.56 mg/kg/injection, schedule: Q01DX009 (ip), vehicle: saline.
Where [14] appears, read: dose: 3.12 mg/kg/injection, schedule: Q01DX009 (ip), vehicle: saline.
[15] abbreviates: dose: 6.25 mg/kg/injection, schedule: Q01DX009 (ip), vehicle: saline.
Setting [16] is: dose: 100.0 mg/kg/injection, schedule: Q04DX003 (ip), vehicle: saline.
Where [17] appears, read: dose: 200.0 mg/kg/injection, schedule: Q04DX003 (ip), vehicle: saline.
The mark [18] stands for this setting: dose: 400.0 mg/kg/injection, schedule: Q04DX003 (ip), vehicle: saline.

“And” between values parts separate entries of the source, which are not always exact repeats. Equal values may be shown once. Toxic doses and inconclusive results are not listed.

As to `CCOC(=O)Nc1ccc([N+](=O)[O-])cc1`, the T/C runs as follows: under setting [1], 87 % of control; under setting [2], 99 % of control; under setting [3], 99 % of control; under setting [4], 110 % of control; under setting [5], 97 % of control; under setting [6], 89 % of control.

Turning to `CC(CCC(=O)O)(c1cc(Br)c(O)c(Br)c1)c1cc(Br)c(O)c(Br)c1`, the T/C was 93 % of control under setting [7]; 102 % of control (dose: 100.0 mg/kg/injection, schedule: Q04DX003 (ip), vehicle: other); 95 % of control under setting [8]; 102 % of control (dose: 200.0 mg/kg/injection, schedule: Q04DX003 (ip), vehicle: other); 87 % of control under setting [9]; 109 % of control (dose: 400.0 mg/kg/injection, schedule: Q04DX003 (ip), vehicle: other).

Turning to `CCCCCCCCCCCCc1ccccc1`, the T/C (dose: 50.0 mg/kg/injection, schedule: Q01DX001 (ip), vehicle: saline) was 91 % of control; the T/C under setting [10] was 97 % of control; the T/C under setting [11] is 97 % of control; the T/C under setting [12] is 101 % of control.

In the case of `CC(=O)Nc1ccc(/C=N/NC(N)=S)cc1`, the T/C was 94 % of control (dose: 100.0 mg/kg/injection, schedule: Q04DX013 (ip), vehicle: carboxymethylcellulose (CMC)) and 98 % of control (dose: 200.0 mg/kg/injection, schedule: Q04DX013 (ip), vehicle: carboxymethylcellulose (CMC)).

Take `CC1(c2cccc3ccccc23)NC(=O)c2ccccc2N1` (stereo not given): the T/C is 98 % of control (dose: 50.0 mg/kg/injection, schedule: Q01DX009 (ip), vehicle: Klucel (hydroxypropylcellulose) (HPC)); 103 % of control under setting [1]; 101 % of control (dose: 150.0 mg/kg/injection, schedule: Q01DX009 (ip), vehicle: Klucel (hydroxypropylcellulose) (HPC)).

Take `O=C1N(C[P+](c2ccccc2)(c2ccccc2)c2ccccc2)CCCN1C[P+](c1ccccc1)(c1ccccc1)c1ccccc1`: the T/C under setting [13] was 96 % of control; the T/C (dose: 1.56 mg/kg/injection, schedule: Q04DX002 (ip), vehicle: saline) is 150 % of control; the T/C (dose: 3.12 mg/kg/injection, schedule: Q01DX005 (ip), vehicle: saline) was 100 % of control; the T/C under setting [14] is 93 % of control; the T/C (dose: 3.12 mg/kg/injection, schedule: Q04DX002 (ip), vehicle: saline) was 88 % of control; the T/C (dose: 6.25 mg/kg/injection, schedule: Q01DX005 (ip), vehicle: saline) is 94 % of control. In addition, the T/C is, setting by setting: under setting [15], 86 % of control; (dose: 6.25 mg/kg/injection, schedule: Q04DX002 (ip), vehicle: saline) 95 % of control.

Take `C=C(C)CCCC(C)C/C=N/NC(=O)CNC(=O)C=[N+]=[N-]` (stereo not given) (tested in a mixture with another compound): the T/C is, setting by setting: (dose: 50.0 mg/kg/injection, schedule: Q01DX001 (ip), vehicle: water) 100 % of control; (dose: 100.0 mg/kg/injection, schedule: Q01DX001 (ip), vehicle: water) 93 % of control; (dose: 200.0 mg/kg/injection, schedule: Q01DX001 (ip), vehicle: water) 91 % of control; (dose: 400.0 mg/kg/injection, schedule: Q01DX001 (ip), vehicle: water) 100 % of control.

For `CC(C)NC(=O)CS(=O)(=O)c1ccc(N)cc1`, the T/C by setting is: (dose: 100.0 mg/kg/injection, schedule: Q04DX003 (ip), vehicle: saline with Tween-80) 97 % of control; (dose: 200.0 mg/kg/injection, schedule: Q04DX003 (ip), vehicle: saline with Tween-80) 97 % of control; (dose: 400.0 mg/kg/injection, schedule: Q04DX003 (ip), vehicle: saline with Tween-80) 95 % of control.

Consider `Cc1ccc(S(=O)(=O)N2CN3CN(C2)CN(S(=O)(=O)c2ccc(C)cc2)C3)cc1`, for which the T/C by setting is: under setting [16], 95 % of control; under setting [17], 86 % of control; under setting [18], 95 % of control.

`N#Cc1c(CBr)ccc2ccccc12`: where the note is “dose: 75.0 mg/kg/injection, schedule: Q01DX001 (ip), vehicle: saline”, the T/C is 92 % of control.

Take `C=C(C)CSc1ncnc2nc[nH]c12`: the T/C is 112 % of control (dose: 52.0 mg/kg/injection, schedule: Q01DX Z (ip), vehicle: other); 112 % of control (dose: 80.0 mg/kg/injection, schedule: Q01DX Z (ip), vehicle: other); 124 % of control (dose: 120.0 mg/kg/injection, schedule: Q01DX Z (ip), vehicle: other).

Take `COC1OC(COC(=O)c2ccc([N+](=O)[O-])cc2)C(N(C)C(C)=O)C1OC(=O)c1ccc([N+](=O)[O-])cc1` (stereo not given): the T/C is 93 % of control (dose: 100.0 mg/kg/injection, schedule: Q01DX001 (ip), vehicle: carboxymethylcellulose (CMC)); 93 % of control (dose: 200.0 mg/kg/injection, schedule: Q01DX001 (ip), vehicle: carboxymethylcellulose (CMC)); 93 % of control (dose: 400.0 mg/kg/injection, schedule: Q01DX001 (ip), vehicle: carboxymethylcellulose (CMC)).

Regarding `CC(CCl)NC(=O)Nc1cccc2c1CCCC2` (stereo not given), the T/C was 102 % of control under setting [1]; 106 % of control under setting [2]; 103 % of control under setting [3]; 106 % of control under setting [4]; 97 % of control under setting [5]; 103 % of control under setting [6].

Regarding `Cc1noc(C)c1C=O`, the T/C by setting is: under setting [2], 102 % of control; under setting [4], 95 % of control.

For `OCCCCC(O)c1ccccc1` (stereo not given), the T/C is 107 % of control under setting [7]; 116 % of control under setting [16]; 96 % of control under setting [8]; 107 % of control under setting [17]; 100 % of control under setting [9]; 112 % of control under setting [18].

With `CC(C)N(CC#N)C(C)C`, the T/C (dose: 0.25 mg/kg/injection, schedule: Q01DX009 (ip), vehicle: saline with Tween-80) was 93 % of control and the T/C (dose: 0.5 mg/kg/injection, schedule: Q01DX009 (ip), vehicle: saline with Tween-80) is 95 % of control.

Take `CC(=O)OC1C(CO)OC2C1OC1=NC(N)=NCN12` (stereo not given): the T/C runs as follows: under setting [13], 102 % of control and 119 % of control; under setting [14], 102 % of control; under setting [15], 95 % of control and 98 % of control; (dose: 12.5 mg/kg/injection, schedule: Q01DX009 (ip), vehicle: saline) 96 % of control and 98 % of control; (dose: 25.0 mg/kg/injection, schedule: Q01DX009 (ip), vehicle: saline) 96 % of control; (dose: 50.0 mg/kg/injection, schedule: Q01DX009 (ip), vehicle: saline) 100 % of control and 91 % of control. Besides, the T/C is 104 % of control and 91 % of control under setting [7]; 107 % of control and 109 % of control under setting [8].

In the case of `COc1ccc(NC(=O)Nc2cc(Cl)ccc2OC)c(Cl)c1`, the T/C reads like this: under setting [7], 100 % of control; under setting [16], 104 % of control; under setting [8], 93 % of control; under setting [17], 98 % of control; under setting [9], 88 % of control; under setting [18], 101 % of control.

On to `COc1cc(C=NC(C)(C)CO)cc(OC)c1`, for which the T/C was 88 % of control (dose: 100.0 mg/kg/injection, schedule: Q01DX001 (ip), vehicle: alcohol); 95 % of control (dose: 100.0 mg/kg/injection, schedule: Q04DX003 (ip), vehicle: alcohol); 96 % of control (dose: 200.0 mg/kg/injection, schedule: Q01DX001 (ip), vehicle: alcohol); 97 % of control (dose: 200.0 mg/kg/injection, schedule: Q04DX003 (ip), vehicle: alcohol); 96 % of control (dose: 400.0 mg/kg/injection, schedule: Q01DX001 (ip), vehicle: alcohol); 100 % of control (dose: 400.0 mg/kg/injection, schedule: Q04DX003 (ip), vehicle: alcohol).

`CC(C)(CCN)[N+](=O)[O-]`: the T/C is, setting by setting: under setting [10], 96 % of control; under setting [11], 96 % of control; under setting [12], 102 % of control.
